Data on 17 compounds can be found in ChEMBL document CHEMBL1145498, “A systematic interaction map of validated kinase inhibitors with Ser/Thr kinases” (Proc Natl Acad Sci U S A, 2007).

By IC50 is commonly meant the concentration that inhibits the measured activity by half. As a reminder, the Ki is a measure of affinity in units of concentration, obtained from inhibition or displacement. Low readings indicate a stronger hold on the target, high ones a looser hold on the target. As usually defined, the Kd is the equilibrium constant for the complex coming apart. Higher therefore signals a looser complex.

Assay [1] has as its target Dual specificity mitogen-activated protein kinase kinase 1 (Homo sapiens, UniProt Q02750).
Assay [2] is described as follows: Inhibition of Cdk5/p35.
Assay [3] in a line: Inhibition of Cdk1/cyclin A.
Assay [4] has as its target Protein kinase C alpha type (Homo sapiens, UniProt P17252). Nature of the assay: Inhibition of PKCalpha.
Assay [5] has as its target Protein kinase C delta type (Homo sapiens, UniProt Q05655). Kind of assay: Inhibition of PKCdelta.
The target of another assay is Ephrin type-B receptor 3 (Homo sapiens, UniProt P54753). Kind of assay: Inhibition of EphB3.
Assay [6] in a line: Inhibition of SGK.
Assay [7] addresses RAC-alpha serine/threonine-protein kinase (Homo sapiens, UniProt P31749). Nature of the assay: Inhibition of AKT.
Assay [8] can be described thus: Inhibition of Cdk4/cyclin D.
For assay [9], the target named is Tyrosine-protein kinase Fyn (Homo sapiens, UniProt P06241). Nature of the assay: Inhibition of Fyn.
In assay [10] the target is T1, Protein kinase C epsilon type (Homo sapiens, UniProt Q02156).
T1 sequence (Q02156 whole entry): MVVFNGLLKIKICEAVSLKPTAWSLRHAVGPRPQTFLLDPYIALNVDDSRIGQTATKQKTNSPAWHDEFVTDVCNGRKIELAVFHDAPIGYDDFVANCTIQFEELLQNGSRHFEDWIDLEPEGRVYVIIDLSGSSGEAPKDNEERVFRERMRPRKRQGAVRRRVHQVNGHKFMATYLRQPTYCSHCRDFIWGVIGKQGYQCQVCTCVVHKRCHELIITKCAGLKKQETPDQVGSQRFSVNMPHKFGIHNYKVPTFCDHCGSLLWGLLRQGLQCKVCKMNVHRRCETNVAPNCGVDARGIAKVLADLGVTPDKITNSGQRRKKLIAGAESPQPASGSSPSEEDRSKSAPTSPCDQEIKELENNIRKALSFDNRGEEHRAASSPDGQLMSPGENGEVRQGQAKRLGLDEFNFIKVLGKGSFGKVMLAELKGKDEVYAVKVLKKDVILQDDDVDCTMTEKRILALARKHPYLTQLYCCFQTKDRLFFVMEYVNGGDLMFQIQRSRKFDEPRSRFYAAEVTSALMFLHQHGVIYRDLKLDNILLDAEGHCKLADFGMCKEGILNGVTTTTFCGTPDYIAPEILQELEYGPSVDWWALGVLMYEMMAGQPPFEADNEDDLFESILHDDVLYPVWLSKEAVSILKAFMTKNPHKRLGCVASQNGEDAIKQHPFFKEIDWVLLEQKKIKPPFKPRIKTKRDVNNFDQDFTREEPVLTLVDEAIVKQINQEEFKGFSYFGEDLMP
Nature of the assay: Inhibition of PKCepsilon.

Assay [11] concerns the target T2, Glycogen synthase kinase-3 beta (Homo sapiens, UniProt P49841). Kind of assay: Inhibition of GSK3-beta. As to conditions: read-out: IC50.
The target in assay [12] is T2, Glycogen synthase kinase-3 beta. Kind of assay: Binding affinity to GSK3-beta.
Assay [13] concerns the target Epidermal growth factor receptor (Homo sapiens, UniProt P00533).
Assay [14] has as its target Calcium/calmodulin-dependent protein kinase type IV (Homo sapiens, UniProt Q16566). Nature of the assay: Inhibition of CaM-K4.
Assay [15] can be described thus: Inhibition of CaM-K2.
Assay [16] deals with T3, Myosin light chain kinase, smooth muscle (Homo sapiens, UniProt Q15746). Kind of assay: Binding affinity at MLCK.
Assay [17] concerns the target Mitogen-activated protein kinase 1 (Homo sapiens, UniProt P28482). Kind of assay: Inhibition of ERK2.
The nature of assay [18]: Inhibition of CaM-K1.
A short description of assay [19]: Inhibition Cdk1/cyclin E.
The target of assay [20] is Proto-oncogene tyrosine-protein kinase Src (Homo sapiens, UniProt P12931). Nature of the assay: Inhibition of Src. As to conditions: read-out: IC50.
Assay [21] concerns the target Mitogen-activated protein kinase 10 (Homo sapiens, UniProt P53779).
For assay [22], the target named is Cyclin-dependent kinase 1 (Homo sapiens, UniProt P06493). Nature of the assay: Inhibition of Cdk1.
Assay [23] in a line: Inhibition of mouse CaM kinase 2.
The nature of assay [24]: Inhibition of serum-stimulated Akt kinase phosphorylation in human A375 cells. It counts as cell-based. The settings on record: A-375.
For assay [25], the target named is Vascular endothelial growth factor receptor 2 (Homo sapiens, UniProt P35968). Nature of the assay: Inhibition of KDR.
The subject of a further assay is A-375. Nature of the assay: Antiproliferative activity against human A375 cells. It counts as functional, cell-based.
Assay [26] concerns the target Inhibitor of nuclear factor kappa-B kinase subunit beta (Homo sapiens, UniProt O14920). Kind of assay: Inhibition of IKK-beta.
The target of assay [27] is Tyrosine-protein kinase Lck (Homo sapiens, UniProt P06239).
Assay [28] has as its target Serine-protein kinase ATM (Homo sapiens, UniProt Q13315). Nature of the assay: Inhibition of ATM.
The target in assay [29] is Serine/threonine-protein kinase ATR (Homo sapiens, UniProt Q13535). Nature of the assay: Inhibition of ATR.
In assay [30] the target is Protein kinase C beta type (Homo sapiens, UniProt P05771). Nature of the assay: Inhibition of PKCbeta.
Assay [31] deals with T3, Myosin light chain kinase, smooth muscle. Nature of the assay: Inhibition of myosin light chain kinase.

Serine-protein kinase ATM, sequence (Q13315 whole entry): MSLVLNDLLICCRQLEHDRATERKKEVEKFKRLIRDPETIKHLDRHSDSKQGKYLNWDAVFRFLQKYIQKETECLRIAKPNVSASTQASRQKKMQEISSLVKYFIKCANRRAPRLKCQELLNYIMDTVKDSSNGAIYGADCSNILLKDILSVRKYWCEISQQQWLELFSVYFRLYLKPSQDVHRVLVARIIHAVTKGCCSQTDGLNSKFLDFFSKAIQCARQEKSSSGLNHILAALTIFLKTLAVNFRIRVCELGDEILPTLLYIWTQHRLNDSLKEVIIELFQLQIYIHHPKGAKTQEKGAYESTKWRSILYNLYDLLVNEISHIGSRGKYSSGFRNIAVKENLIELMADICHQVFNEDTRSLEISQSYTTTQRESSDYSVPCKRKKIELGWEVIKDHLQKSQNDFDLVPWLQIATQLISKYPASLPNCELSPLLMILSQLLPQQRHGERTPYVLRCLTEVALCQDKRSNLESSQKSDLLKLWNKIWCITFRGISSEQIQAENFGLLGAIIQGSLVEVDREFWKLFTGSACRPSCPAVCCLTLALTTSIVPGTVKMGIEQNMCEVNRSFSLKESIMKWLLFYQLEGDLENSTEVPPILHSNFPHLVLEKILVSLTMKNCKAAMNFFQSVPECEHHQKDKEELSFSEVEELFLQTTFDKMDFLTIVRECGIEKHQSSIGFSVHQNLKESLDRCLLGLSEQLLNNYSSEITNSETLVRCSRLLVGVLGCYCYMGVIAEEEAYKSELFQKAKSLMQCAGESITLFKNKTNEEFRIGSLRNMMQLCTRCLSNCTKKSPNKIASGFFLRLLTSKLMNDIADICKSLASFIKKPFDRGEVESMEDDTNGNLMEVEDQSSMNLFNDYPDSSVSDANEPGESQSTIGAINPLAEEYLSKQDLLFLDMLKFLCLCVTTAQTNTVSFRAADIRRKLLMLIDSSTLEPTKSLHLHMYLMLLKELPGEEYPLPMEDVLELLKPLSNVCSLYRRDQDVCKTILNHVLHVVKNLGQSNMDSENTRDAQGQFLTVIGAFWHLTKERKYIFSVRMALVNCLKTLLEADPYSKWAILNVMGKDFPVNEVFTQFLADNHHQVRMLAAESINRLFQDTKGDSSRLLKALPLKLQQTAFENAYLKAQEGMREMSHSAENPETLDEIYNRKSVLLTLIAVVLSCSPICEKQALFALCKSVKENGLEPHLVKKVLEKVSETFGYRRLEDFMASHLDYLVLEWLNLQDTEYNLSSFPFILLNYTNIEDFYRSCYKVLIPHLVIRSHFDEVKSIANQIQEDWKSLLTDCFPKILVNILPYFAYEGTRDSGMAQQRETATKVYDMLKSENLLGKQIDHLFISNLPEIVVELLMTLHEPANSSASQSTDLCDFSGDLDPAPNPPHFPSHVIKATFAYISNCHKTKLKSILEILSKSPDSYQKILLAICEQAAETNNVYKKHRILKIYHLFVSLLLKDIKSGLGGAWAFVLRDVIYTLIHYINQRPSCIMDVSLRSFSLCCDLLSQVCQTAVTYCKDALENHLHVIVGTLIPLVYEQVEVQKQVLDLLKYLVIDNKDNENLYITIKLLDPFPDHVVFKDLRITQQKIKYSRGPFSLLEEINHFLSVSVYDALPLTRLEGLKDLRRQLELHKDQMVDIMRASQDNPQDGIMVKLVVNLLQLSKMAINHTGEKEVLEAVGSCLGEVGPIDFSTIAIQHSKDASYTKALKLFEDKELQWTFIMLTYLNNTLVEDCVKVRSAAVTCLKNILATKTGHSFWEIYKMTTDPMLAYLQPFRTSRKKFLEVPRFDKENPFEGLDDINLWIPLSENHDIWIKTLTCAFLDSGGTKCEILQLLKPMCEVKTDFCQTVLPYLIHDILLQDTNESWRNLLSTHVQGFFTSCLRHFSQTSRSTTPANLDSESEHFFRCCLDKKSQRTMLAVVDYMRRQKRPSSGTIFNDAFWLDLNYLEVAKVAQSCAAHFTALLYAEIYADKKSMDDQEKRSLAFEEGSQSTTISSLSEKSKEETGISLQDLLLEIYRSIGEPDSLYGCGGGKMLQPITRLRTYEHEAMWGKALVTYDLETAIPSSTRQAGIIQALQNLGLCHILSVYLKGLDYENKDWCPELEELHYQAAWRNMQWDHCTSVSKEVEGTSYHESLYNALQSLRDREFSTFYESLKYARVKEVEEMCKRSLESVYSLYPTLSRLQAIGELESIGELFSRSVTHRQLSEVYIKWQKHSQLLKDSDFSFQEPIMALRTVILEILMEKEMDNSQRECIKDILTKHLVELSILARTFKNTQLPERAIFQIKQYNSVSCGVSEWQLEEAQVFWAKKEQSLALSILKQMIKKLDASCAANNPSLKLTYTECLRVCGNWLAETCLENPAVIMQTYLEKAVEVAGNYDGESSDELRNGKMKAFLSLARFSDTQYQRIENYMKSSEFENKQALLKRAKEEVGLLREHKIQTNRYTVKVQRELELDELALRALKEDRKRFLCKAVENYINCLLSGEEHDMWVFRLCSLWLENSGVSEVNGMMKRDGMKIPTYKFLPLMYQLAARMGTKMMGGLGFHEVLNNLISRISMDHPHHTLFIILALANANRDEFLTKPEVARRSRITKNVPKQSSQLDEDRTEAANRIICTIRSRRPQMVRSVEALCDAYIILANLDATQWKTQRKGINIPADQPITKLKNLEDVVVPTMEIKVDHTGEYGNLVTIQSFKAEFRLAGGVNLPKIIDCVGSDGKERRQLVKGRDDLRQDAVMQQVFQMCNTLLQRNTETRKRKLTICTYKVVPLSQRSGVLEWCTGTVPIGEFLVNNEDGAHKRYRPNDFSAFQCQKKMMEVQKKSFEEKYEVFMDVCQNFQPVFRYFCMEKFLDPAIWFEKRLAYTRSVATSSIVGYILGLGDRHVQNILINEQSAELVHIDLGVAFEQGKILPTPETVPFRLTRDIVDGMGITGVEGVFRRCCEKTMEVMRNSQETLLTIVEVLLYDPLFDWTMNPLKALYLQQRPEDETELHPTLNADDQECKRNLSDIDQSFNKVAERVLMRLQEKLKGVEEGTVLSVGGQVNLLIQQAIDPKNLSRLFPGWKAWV
T2 sequence (P49841 whole entry): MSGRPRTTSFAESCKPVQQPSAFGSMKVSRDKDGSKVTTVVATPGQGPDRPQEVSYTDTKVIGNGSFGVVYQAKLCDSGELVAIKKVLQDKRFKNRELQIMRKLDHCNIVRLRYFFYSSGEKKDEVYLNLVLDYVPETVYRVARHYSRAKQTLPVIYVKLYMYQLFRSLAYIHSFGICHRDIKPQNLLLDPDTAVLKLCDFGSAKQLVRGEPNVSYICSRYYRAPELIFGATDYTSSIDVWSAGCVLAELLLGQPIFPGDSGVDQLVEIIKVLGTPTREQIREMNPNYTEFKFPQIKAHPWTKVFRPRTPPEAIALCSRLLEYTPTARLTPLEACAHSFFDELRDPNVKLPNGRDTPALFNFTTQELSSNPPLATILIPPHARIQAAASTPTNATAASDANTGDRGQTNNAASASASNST
Inhibitor of nuclear factor kappa-B kinase subunit beta, sequence (O14920 whole entry): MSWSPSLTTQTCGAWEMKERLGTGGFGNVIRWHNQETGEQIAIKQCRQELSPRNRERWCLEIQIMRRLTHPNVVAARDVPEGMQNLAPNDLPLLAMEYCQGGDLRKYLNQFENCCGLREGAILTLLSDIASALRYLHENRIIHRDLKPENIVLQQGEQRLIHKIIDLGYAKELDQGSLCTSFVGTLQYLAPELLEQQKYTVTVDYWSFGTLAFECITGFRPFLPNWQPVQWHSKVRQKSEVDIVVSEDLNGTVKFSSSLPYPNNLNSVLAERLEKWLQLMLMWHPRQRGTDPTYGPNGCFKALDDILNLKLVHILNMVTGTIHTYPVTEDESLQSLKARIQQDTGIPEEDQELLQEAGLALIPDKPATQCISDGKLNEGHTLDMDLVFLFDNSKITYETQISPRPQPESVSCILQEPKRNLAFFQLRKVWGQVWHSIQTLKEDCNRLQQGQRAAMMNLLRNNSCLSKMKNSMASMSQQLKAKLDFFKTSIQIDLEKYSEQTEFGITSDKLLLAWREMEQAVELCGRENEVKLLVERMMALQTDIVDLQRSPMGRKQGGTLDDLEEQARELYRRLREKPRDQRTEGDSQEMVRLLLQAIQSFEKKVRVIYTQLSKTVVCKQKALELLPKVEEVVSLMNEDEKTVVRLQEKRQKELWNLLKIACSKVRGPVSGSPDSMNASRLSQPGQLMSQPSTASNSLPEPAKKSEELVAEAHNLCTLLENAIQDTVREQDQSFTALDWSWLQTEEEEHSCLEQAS

Regarding `O=C1C=CC(=O)c2ccccc21` [NAPHTHOQUINONE], the IC50 in assay [1] was 380 nM.
On to `CC(C)[C@H](CO)Nc1nc(Nc2cccc(Cl)c2)c2ncn(C(C)C)c2n1` [PURVALANOLA], for which the IC50 in assay [2] was 75 nM.
As for `O=C1N=C(NCc2cccs2)S/C1=C/c1ccc2ncccc2c1`, the Ki in assay [3] is 110 nM; in assay [4], above 2000 nM; in assay [5] it was 318 nM; on Ephrin type-B receptor 3, above 2000 nM; in [6], 497 nM; in assay [7], above 2000 nM. In addition, the Ki in [8] and in assay [9] was above 2000 nM throughout.
Regarding `COCc1cc(O)c(O)c(O)c1-c1c(COC)cc(O)c(O)c1O`, the IC50 in [10] is 175 nM.
Take `CC(C)n1cnc2c(Nc3cccc(Cl)c3)nc(NCCO)nc21`: the IC50 in assay [11] worked out at 30 nM. In [12], this compound displayed a Kd of 126 nM.
In the case of `CCn1cnc2c(N)nc(N(c3cccc(Cl)c3)[C@@H]3CCCC[C@@H]3N)nc21` (relative stereo), the IC50 in [13] is above 10000 nM; in assay [4], 6100 nM.
Turning to `CC(=O)O.O=C(O)c1ccc2c3c1cccc3c(=O)n1c3ccccc3nc21`, the IC50 in assay [14] was above 26700 nM; in assay [15], 10 µg/mL; in assay [16], 26700 nM; in [17] it was above 26700 nM; in [18], above 10 µg/mL.
On to `O=C1Nc2ccccc2/C1=C1/Nc2ccccc2/C1=N\OCC(O)CO` (configuration not stated), for which the IC50 in assay [19] is 210 nM; in assay [20] it was 430 nM.
For `Oc1c2ccccc2c2c3c(cccc13)N=N2` [SP-600125], in assay [21], the IC50 was found to be 90 nM.
As to `O=Nc1c(-c2c(O)[nH]c3ccc(I)cc23)[nH]c2ccccc12`, in assay [22], the IC50 was 5 nM.
On to `Oc1cccc(-c2nc(N3CCOCC3)c3sccc3n2)c1`, for which the IC50 in [4] was at least 3400 nM; in assay [23] it was 370 nM; in [24], below 3000 nM; in assay [25], at least 3400 nM; in the assay with A-375, 580 nM.
Consider `NC(=O)Nc1sc(-c2ccccc2)cc1C(N)=O`, for which the IC50 in assay [26] was 13 nM.
In assay [27], `COc1c(C=O)c(O)cc2c1C(=O)c1ccccc1C2=O` [DAMNACANTHAL] yielded an IC50 of 620 nM.
As for `NC(N)=S` [THIOUREA], the IC50 in assay [28] and in [29] was 200 nM in each case.
`Cn1c2ccccc2c2c3c(c4c5ccccc5n(CCC#N)c4c21)CNC3=O` [GO-6976]: the IC50 in assay [30] and in assay [4] was 2 nM in each case.
In the case of `O=S(=O)(c1cccc2cnccc12)N1CCCNCC1` [FASUDIL], the IC50 in [31] was 3600 nM.
Consider `CCN(CC)CCCCNc1ncc2cc(-c3cc(OC)cc(OC)c3)c(NC(=O)NC(C)(C)C)nc2n1` [PD-173074], for which, in assay [28], the IC50 came out at 17600 nM.
